# Measurements reported in ChEMBL document CHEMBL1143380, “N-[6-amino-2-(heteroaryl)pyrimidin-4-yl]acetamides as A2A receptor antagonists with improved drug like properties and in vivo efficacy” (J Med Chem, 2009).
# Assays:
# Adenosine receptor A2a [1] = target: T1, Adenosine receptor A2a (Homo sapiens, UniProt P29274); assay: Displacement of [3H]ZM241385 from human adenosine A2A receptor expressed in HEK293 cells; type: cell-based
# Adenosine receptor A1 = target: T2, Adenosine receptor A1 (Homo sapiens, UniProt P30542); assay: Displacement of [3H]DPCPX from human adenosine A1 receptor expressed in HEK293 cells; type: cell-based
# T2 sequence (P30542 whole entry): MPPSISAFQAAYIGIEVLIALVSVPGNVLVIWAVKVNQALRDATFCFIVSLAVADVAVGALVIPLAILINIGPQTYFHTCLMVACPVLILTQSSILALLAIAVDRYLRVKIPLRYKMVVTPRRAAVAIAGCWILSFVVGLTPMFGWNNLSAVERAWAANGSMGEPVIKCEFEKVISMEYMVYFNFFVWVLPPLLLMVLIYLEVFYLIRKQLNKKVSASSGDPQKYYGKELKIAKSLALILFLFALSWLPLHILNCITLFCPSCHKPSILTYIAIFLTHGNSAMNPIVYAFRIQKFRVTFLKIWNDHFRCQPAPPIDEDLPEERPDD
# Homo sapiens = organism: Homo sapiens; assay: Selectivity ratio of Ki for human adenosine A1 receptor to Ki for human adenosine A2A receptor
# Adenosine receptor A2a [2] = target: T1, Adenosine receptor A2a; assay: Antagonist activity at human adenosine A2A receptor assessed as inhibition of CGS-21680-stimulated cAMP production; type: functional
# [3] = Solubility at pH >=2; type: physicochemical
# [4] = Solubility in phosphate buffer at pH 7.2; type: physicochemical
# [5] = Solubility in phosphate buffered saline; type: physicochemical
# T1 sequence (P29274 whole entry): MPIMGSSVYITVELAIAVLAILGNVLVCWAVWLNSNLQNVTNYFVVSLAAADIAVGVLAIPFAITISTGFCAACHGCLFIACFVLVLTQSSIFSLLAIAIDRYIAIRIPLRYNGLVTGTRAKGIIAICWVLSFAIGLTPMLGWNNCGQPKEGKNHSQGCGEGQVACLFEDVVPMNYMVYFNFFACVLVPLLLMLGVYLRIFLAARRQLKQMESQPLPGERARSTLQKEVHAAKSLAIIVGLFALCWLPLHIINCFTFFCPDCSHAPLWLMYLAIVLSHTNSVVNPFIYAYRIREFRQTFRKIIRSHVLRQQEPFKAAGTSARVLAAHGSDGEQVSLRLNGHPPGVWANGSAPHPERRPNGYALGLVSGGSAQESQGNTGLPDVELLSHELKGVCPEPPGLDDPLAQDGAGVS
Structure (SMILES),Ki (Adenosine receptor A2a [1]),Ki (Adenosine receptor A1),Ratio Ki (Homo sapiens),solubility [3],solubility [5],IC50 (Adenosine receptor A2a [2]),solubility [4]
COC[C@@H]1CCCN1c1cc(NC(C)=O)nc(-c2ccccn2)n1,0.05 µM,0.125 µM,2.5,,,,
COC[C@H]1CCCN1c1cc(NC(C)=O)nc(-c2ccccn2)n1,0.046 µM,0.069 µM,1.5,,,,
CC(=O)Nc1cc(N2CCCC2=O)nc(-n2nc(C)cc2C)n1,0.012 µM,0.913 µM,76,,,1 µM,
CC(=O)Nc1cc(N2CCN(C)CC2)nc(-n2nc(C)cc2C)n1,1.87 µM,> 10 µM,,,,,
CCN(CC)c1cc(NC(C)=O)nc(-n2nc(C)cc2C)n1,0.092 µM,4.47 µM,49,,,,
COC[C@H]1C[C@@H](OC)CN1c1cc(NC(C)=O)nc(-n2nc(C)cc2C)n1,0.023 µM,0.62 µM,27,,,,
COc1cncc(-c2cc(NC(C)=O)nc(-n3nc(C)cc3C)n2)c1,,,82,0.01 mg/mL,,0.085 µM,
CC(=O)Nc1cc(N2CCC[C@@H]2COc2ccccn2)nc(-n2nc(C)cc2C)n1,0.04 µM,0.064 µM,1.5,,,,
CC(=O)Nc1cc(N2CCC[C@H]2COc2ccccn2)nc(-n2nc(C)cc2C)n1,0.439 µM,12.1 µM,28,,,,
COC[C@@H]1CCC(C)N1c1cc(NC(C)=O)nc(-n2nc(C)cc2C)n1 (some centres undefined),0.047 µM,1.64 µM,35,,,,
CC(=O)Nc1cc(N2CCc3ccccc3C2)nc(-n2nc(C)cc2C)n1,0.0042 µM,0.323 µM,77,,,,0.01 mg/mL
CC(=O)Nc1cc(N2CCCC2)nc(-n2nc(C)cc2C)n1,0.11 µM,4.95 µM,45,,,,
COC[C@H]1C[C@H](OC)CN1c1cc(NC(C)=O)nc(-n2nc(C)cc2C)n1,0.0075 µM,0.352 µM,47,,,,
COC[C@H]1CCCN1c1cc(NC(C)=O)nc(-c2ccc(C)o2)n1,0.0027 µM,0.0105 µM,4,,,,
COC(=O)[C@H]1CCCN1c1cc(NC(C)=O)nc(-n2nc(C)cc2C)n1,0.205 µM,2.93 µM,14,,,,
CC(=O)Nc1cc(N2CCCCC2)nc(-n2nc(C)cc2C)n1,0.078 µM,3.36 µM,43,,,,
COC[C@H]1CCCN1c1cc(NC(C)=O)nc(-c2nccs2)n1,0.02 µM,0.15 µM,7.5,,,,
COC[C@@H]1CCCN1c1cc(NC(C)=O)nc(-c2nccs2)n1,0.015 µM,0.354 µM,23,,,,
CC(=O)Nc1cc(-c2ccccc2O)nc(-n2nc(C)cc2C)n1,0.0019 µM,,,,,,
COC[C@@H]1CCCN1c1cc(NC(C)=O)nc(-c2ccc(C)o2)n1,0.119 µM,0.215 µM,2,,,,
COC[C@H]1CCCN1c1cc(NC(C)=O)nc(-c2cccs2)n1,0.047 µM,0.203 µM,4.3,,,,
CC(=O)Nc1cc(N2CCOCC2)nc(-n2nc(C)cc2C)n1,0.313 µM,8.12 µM,26,,,,
COC[C@@H]1CCCN1c1cc(NC(C)=O)nc(-c2cccs2)n1,0.027 µM,0.325 µM,12,,,,
COC(=O)[C@@H]1CCCN1c1cc(NC(C)=O)nc(-n2nc(C)cc2C)n1,> 10 µM,,,,,,

# Further lines, with some results ahead:
Ki (Adenosine receptor A2a [1]),Ki (Adenosine receptor A1),Ratio Ki (Homo sapiens),solubility [3],solubility [5],Structure (SMILES),IC50 (Adenosine receptor A2a [2]),solubility [4]
0.043 µM,1.28 µM,29,,,COC[C@H]1CCCN1c1cc(NC(=O)NC(C)C)nc(-n2nc(C)cc2C)n1,,
0.028 µM,1.04 µM,37,,,CC(=O)Nc1cc(N2CCCC2C)nc(-n2nc(C)cc2C)n1 (centres undefined),,
0.261 µM,2.47 µM,9.5,,,COC[C@H]1CCCN1c1cc(N)nc(-n2nc(C)cc2C)n1,,
0.455 µM,4.19 µM,9,,,CCOCC1CCCN1c1cc(NC(C)=O)nc(-n2nc(C)cc2C)n1 (centres undefined),,
0.0258 µM,1.53 µM,59,,,"CC(=O)Nc1cc(N2CCCC2CO)nc(-n2nc(C)cc2C)n1 (single isomer, unassigned)",,
,,34,,,COC[C@H]1CCCN1c1cc(NC(C)=O)nc(-n2nc(C)cc2C)n1,,
0.0059 µM,0.064 µM,11,,,CCC(=O)Nc1cc(N2CCC[C@@H]2COC)nc(-n2nc(C)cc2C)n1,,
0.324 µM,4.47 µM,14,,,COC[C@@H]1CCCN1c1cc(NC(C)=O)nc(-n2nc(C)cc2C)n1,,
0.05 µM,0.092 µM,2,,,COC[C@H]1CCCN1c1cc(NC(=O)CC(C)C)nc(-n2nc(C)cc2C)n1,,
0.009 µM,0.32 µM,35,,,COCC1CCCN1c1cc(NC(C)=O)nc(-n2nc(C)cc2C)n1 (centres undefined),,
0.019 µM,0.96 µM,50,,,COC[C@H]1CCCN1c1cc(NC(=O)OC)nc(-n2nc(C)cc2C)n1,,
,,,,> 6.7 mg/mL,COC[C@H]1CCCN1c1cc(NC(C)=O)nc(-n2nc(C)cc2C)n1.Cl,,
0.275 µM,4.69 µM,17,,,"COCCC1CCCCN1c1cc(NC(C)=O)nc(-n2nc(C)cc2C)n1 (single isomer, unassigned)",,
